Source: ChEMBL document CHEMBL4261615, “Design, synthesis, biological evaluation and cellular imaging of imidazo[4,5-b]pyridine derivatives as potent and selective TAM inhibitors” (Bioorg Med Chem, 2018)
Calls of active or inactive are those of the source. No cut-off for these calls is given here.

How the values were obtained:
[1] = target: T1, Tyrosine-protein kinase receptor UFO (Homo sapiens, UniProt P30530); assay: Inhibition of recombinant His-tagged human Axl (473 to end residues) cytoplasmic domain expressed in insect system using poly (Glu-Ala-Tyr) peptide as substrate after 5 mins in presence of ADP by fluorescence analysis
T1 sequence (P30530 whole entry): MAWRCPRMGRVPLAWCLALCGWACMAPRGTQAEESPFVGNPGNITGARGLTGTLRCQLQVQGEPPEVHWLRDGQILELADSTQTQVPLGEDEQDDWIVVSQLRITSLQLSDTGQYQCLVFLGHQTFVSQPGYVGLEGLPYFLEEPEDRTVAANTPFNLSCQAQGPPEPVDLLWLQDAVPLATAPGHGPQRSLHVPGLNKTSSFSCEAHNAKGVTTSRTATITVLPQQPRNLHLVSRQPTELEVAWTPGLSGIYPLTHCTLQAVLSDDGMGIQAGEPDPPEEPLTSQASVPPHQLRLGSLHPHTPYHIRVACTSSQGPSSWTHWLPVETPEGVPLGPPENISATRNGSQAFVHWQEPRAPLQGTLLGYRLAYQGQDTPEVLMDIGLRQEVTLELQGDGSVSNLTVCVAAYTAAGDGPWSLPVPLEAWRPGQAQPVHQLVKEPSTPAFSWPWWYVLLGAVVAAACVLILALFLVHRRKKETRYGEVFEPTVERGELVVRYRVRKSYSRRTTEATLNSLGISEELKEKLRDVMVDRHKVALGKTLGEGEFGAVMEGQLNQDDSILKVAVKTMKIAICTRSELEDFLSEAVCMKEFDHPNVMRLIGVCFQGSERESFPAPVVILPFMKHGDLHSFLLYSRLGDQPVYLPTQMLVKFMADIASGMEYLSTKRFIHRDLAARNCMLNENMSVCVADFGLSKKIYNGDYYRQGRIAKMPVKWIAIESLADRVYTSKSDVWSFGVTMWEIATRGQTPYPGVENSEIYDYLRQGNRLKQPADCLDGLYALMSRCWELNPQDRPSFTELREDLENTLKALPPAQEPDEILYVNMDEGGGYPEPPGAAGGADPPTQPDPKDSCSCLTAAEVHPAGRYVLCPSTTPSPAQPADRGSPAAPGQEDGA

[2] = target: T2, Aurora kinase A (Homo sapiens) (UniProt O14965); assay: Binding affinity to wild-type human partial length AURKA (E122 to K401 residues) expressed in mammalian expression system assessed as fraction of unbound kinase to substrate at 0.1 uM after 1 hr by KinomeScan assay
T2 sequence (whole entry): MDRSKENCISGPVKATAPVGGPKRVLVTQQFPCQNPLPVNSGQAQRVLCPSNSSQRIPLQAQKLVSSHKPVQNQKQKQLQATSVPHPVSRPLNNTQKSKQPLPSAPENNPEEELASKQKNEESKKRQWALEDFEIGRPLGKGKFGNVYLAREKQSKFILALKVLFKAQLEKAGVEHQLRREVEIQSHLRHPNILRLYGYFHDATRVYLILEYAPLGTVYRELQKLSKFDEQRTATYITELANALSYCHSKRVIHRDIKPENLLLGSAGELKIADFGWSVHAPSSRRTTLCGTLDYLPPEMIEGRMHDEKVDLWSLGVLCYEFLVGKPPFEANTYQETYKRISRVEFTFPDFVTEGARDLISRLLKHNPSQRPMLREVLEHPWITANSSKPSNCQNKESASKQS

[3] = target: Serine/threonine-protein kinase B-raf (Homo sapiens) (UniProt P15056); assay: Binding affinity to wild-type human partial length BRAF (S429 to E741 residues) expressed in mammalian expression system assessed as fraction of unbound kinase to substrate at 10 uM after 1 hr by KinomeScan assay
Serine/threonine-protein kinase B-raf (Homo sapiens), sequence (P15056 whole entry, the tested form may be a part): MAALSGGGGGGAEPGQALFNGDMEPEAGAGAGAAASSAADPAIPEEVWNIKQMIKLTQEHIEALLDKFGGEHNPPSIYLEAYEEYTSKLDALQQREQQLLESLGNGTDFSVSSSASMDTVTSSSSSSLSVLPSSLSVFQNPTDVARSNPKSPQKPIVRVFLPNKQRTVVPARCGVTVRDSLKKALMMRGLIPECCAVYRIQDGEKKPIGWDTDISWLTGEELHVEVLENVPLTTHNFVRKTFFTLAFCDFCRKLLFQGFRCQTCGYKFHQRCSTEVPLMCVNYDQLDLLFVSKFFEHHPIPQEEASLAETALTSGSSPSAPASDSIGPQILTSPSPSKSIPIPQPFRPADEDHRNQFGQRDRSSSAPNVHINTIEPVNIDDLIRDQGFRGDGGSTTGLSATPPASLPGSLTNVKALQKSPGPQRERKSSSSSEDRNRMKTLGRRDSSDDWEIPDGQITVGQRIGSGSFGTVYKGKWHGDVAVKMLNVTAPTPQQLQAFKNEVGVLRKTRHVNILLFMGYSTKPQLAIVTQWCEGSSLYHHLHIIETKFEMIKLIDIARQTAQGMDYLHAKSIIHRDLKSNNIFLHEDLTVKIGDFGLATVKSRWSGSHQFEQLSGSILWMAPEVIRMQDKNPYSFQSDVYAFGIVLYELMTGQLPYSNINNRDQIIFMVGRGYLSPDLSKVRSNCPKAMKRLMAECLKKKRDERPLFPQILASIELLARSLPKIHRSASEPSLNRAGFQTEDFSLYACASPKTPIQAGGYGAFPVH

[4] = target: T3, Tyrosine-protein kinase receptor TYRO3 (Homo sapiens) (UniProt Q06418); assay: Binding affinity to wild-type human partial length TYRO3 (S497 to T814 residues) expressed in bacterial expression system assessed as fraction of unbound kinase to substrate at 1 uM after 1 hr by KinomeScan assay
T3 sequence (whole entry): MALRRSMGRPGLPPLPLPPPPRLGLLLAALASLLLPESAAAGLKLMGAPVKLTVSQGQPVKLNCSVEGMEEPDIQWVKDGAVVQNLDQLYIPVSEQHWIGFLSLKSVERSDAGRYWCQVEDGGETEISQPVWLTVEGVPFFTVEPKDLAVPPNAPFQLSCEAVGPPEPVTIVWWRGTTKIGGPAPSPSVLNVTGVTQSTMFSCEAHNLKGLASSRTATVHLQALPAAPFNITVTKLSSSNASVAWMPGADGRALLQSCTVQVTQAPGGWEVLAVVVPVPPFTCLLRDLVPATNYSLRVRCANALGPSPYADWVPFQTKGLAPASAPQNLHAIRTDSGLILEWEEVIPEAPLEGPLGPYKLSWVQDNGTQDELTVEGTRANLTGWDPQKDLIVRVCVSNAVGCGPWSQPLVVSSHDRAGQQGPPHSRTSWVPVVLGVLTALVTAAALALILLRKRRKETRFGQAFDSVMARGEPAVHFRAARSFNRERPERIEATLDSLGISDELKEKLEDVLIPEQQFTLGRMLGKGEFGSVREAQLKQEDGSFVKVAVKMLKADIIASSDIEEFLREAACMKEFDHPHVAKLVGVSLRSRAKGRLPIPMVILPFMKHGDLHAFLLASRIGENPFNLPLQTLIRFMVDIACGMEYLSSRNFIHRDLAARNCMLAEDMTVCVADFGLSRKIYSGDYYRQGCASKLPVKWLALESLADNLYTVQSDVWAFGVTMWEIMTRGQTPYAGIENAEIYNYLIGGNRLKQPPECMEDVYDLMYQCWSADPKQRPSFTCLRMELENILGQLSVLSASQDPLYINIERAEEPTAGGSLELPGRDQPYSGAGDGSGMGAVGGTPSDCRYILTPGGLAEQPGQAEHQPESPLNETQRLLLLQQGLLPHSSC

[5] = target: Tyrosine-protein kinase receptor UFO (Homo sapiens) (UniProt P30530); assay: Inhibition of recombinant His-tagged human Axl (473 to end residues) cytoplasmic domain expressed in insect system using poly (Glu-Ala-Tyr) peptide as substrate after 1.5 hrs by ELISA
[6] = organism: Homo sapiens; assay: Antiproliferative activity against human MGHU3 cells after 72 hrs by CellTiter-Glo assay; type: functional, cell-based

| IC50 [1] | Activity [2] | Activity [3] | Activity [4] | inhibition [5] | SMILES | Activity [6] |
| --- | --- | --- | --- | --- | --- | --- |
| 2000 nM | 7% | 10% | 11% | inactive | O=C(Nc1ccc(Oc2c(Br)cnc3[nH]cnc23)c(F)c1)c1cccn(-c2ccc(F)cc2)c1=O | – |
| 0.77 nM | 5% | 58% | 81% | Active | O=C(Nc1ccc(Oc2ccnc3[nH]cnc23)c(F)c1)c1cccn(-c2ccc(F)cc2)c1=O | inactive |
| > 100000 nM | 1% | 18% | 0% | inactive | Cc1cnc2[nH]cnc2c1Oc1ccc(NC(=O)c2cccn(-c3ccc(F)cc3)c2=O)cc1F | inactive |
| 70 nM | 1% | 43% | 39% | inactive | CC(C)c1nc2c(Oc3ccc(NC(=O)c4cccn(-c5ccc(F)cc5)c4=O)cc3F)ccnc2[nH]1 | inactive |
